ChEMBL document CHEMBL1201862, “PubChem BioAssay data set” (2004)
Calls of active or inactive are those of the source.

What was measured:
cells [1] = format: functional, cell-based
cells [2] = format: functional, cell-based; remark: listed apart in the source
INS1 = test: beta cell apoptosis inhibitors, cytokine rescue, dose response, luminescence, retest (AID 449756); format: functional, cell-based; conditions: Rattus norvegicus;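 also: cell death triggered by IL-1 beta plus TNF-alpha plus IFN-gamma mixture; protective hits raise ATP signal compared with cytokine alone wells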
H9c2 = test: cells; format: functional, cell-based; conditions: Rattus norvegicus, H9c2, Myocardium;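 also: confirmatory concentration-response retest of ultra-high-throughput screening hits for modulation of myocardial damage; cell death induced by hydrogen peroxide oxidative stress; compound pretreatment for 60 min then peroxide exposure for 2 h; potency is for protecting the cells against peroxide damage rather than for killing them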
[3] = AlphaScreen signal interference compounds, dose response, artefact control for ARNT-TACC3 interaction inhibitor project, biochemical, luminescence, cherry-pick (AID 651705); format: functional;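 also: AlphaScreen bead proximity signal that flags compounds interfering with the detection technology; potency reflects signal decrease which marks the compound as an assay artifact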
[4] = molecular target: T1, Long-chain-fatty-acid--AMP ligase FadD28 (Mycobacterium tuberculosis, UniProt P9WQ59); test: Fluorescence polarization aasay to screen for inhibitors that compete for the binding of FadD28 to a bisubstrate Measured in Biochemical System Using Plate Reader - 2147-01_Inhibitor_Dose_CherryPick_Activity.; format: functional, Mycobacterium tuberculosis H37Rv
T1 sequence (P9WQ59 whole entry): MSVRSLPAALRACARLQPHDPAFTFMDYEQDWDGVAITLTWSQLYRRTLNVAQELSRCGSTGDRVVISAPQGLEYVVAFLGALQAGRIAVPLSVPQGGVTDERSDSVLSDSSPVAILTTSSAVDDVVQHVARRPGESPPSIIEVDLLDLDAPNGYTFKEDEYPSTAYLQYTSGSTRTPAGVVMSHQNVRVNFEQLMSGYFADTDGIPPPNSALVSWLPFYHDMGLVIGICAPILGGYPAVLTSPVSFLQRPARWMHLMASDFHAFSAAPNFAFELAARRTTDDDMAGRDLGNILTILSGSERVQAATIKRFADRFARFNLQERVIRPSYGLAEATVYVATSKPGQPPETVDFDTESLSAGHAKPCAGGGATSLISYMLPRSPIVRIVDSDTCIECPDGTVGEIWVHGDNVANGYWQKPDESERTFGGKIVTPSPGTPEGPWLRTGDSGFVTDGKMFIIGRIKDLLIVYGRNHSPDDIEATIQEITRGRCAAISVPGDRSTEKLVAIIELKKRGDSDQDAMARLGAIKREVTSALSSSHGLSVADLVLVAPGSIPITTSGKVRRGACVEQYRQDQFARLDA

[5] = molecular target: T2, DNA repair and recombination protein RAD54-like (Homo sapiens, UniProt Q92698); test: inhibitors of human RAD54 branch migration, confirmation, biochemical, fluorescence, cherry-picked samples, dose series (AID 651657); format: functional
T2 sequence (Q92698 whole entry): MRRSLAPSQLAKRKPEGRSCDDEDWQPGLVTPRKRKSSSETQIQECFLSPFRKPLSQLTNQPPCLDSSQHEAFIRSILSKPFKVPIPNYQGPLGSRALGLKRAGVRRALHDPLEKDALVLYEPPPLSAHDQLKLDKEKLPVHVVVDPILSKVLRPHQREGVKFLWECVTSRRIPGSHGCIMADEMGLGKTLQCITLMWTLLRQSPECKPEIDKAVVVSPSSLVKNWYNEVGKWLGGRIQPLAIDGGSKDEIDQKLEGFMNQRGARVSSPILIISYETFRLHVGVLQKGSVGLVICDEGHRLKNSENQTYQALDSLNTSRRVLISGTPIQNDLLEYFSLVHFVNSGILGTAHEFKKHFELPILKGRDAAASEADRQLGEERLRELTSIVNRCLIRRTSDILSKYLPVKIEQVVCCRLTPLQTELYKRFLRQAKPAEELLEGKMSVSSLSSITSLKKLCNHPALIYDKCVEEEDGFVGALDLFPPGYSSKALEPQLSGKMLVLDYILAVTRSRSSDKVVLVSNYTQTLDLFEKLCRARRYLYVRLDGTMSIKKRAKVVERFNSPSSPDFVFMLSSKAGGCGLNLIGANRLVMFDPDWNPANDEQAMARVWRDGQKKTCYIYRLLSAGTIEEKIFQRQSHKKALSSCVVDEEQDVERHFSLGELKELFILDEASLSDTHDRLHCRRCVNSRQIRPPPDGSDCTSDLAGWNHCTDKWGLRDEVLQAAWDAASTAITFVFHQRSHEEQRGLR

[6] = molecular target: T3, Methionyl-tRNA synthetase, putative (Trypanosoma brucei brucei, UniProt Q38C91); format: functional, Trypanosoma brucei brucei strain 927/4 GUTat10.1
T3 sequence (Q38C91 whole entry): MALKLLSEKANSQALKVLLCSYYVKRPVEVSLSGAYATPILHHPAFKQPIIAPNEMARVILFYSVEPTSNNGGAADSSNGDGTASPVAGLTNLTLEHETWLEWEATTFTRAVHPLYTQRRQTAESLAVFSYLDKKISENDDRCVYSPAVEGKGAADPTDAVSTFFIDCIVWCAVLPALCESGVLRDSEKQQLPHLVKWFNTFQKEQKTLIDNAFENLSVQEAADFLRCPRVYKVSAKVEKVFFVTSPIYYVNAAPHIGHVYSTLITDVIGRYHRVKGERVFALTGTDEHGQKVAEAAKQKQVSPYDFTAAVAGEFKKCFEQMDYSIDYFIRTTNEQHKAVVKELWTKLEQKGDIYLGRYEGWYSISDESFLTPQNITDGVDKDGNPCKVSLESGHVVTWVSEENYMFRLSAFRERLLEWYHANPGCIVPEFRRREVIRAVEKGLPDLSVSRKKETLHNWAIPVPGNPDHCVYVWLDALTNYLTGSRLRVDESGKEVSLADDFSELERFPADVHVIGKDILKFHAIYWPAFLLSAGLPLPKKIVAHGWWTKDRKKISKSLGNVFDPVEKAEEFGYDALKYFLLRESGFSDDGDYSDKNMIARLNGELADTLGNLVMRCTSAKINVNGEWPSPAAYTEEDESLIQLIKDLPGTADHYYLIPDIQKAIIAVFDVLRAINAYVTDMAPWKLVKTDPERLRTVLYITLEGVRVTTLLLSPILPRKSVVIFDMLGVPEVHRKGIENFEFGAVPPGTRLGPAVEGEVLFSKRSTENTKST

[7] = Counterscreen for inhibitors of Trypanosoma brucei methionyl tRNA synthetase (MetRS): Luminescence-based cell-based high throughput dose response assay to identify compounds that are cytotoxic to Jurkat human T lymphocyte cells.; format: functional
[8] = molecular target: T3, Methionyl-tRNA synthetase, putative; format: functional, Trypanosoma brucei brucei strain 927/4 GUTat10.1; remark: listed apart in the source
[9] = molecular target: T4, Microphthalmia-associated transcription factor (Homo sapiens, UniProt O75030); test: TRPM1 promoter luciferase signal decrease, dose response, MITF inhibitor project, cell-based, SK-MEL-5, cherry-picked, set 3 (AID 493073); format: functional
T4 sequence (O75030 whole entry): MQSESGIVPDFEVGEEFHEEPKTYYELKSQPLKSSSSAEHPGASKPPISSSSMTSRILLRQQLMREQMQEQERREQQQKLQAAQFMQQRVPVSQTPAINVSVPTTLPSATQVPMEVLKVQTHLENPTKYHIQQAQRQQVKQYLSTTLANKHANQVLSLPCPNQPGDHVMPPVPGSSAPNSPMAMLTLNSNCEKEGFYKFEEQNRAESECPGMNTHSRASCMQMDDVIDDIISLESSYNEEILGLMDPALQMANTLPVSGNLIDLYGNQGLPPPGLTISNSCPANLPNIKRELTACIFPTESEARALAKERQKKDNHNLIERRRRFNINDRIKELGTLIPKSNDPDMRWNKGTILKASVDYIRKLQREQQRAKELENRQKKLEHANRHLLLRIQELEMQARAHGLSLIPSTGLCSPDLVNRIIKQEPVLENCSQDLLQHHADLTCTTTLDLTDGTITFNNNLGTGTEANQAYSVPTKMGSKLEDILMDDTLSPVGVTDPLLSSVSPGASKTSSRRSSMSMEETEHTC

[10] = molecular target: T5, DNA repair protein RAD52 homolog (Homo sapiens, UniProt P43351); format: functional, biochemical
T5 sequence (P43351 whole entry): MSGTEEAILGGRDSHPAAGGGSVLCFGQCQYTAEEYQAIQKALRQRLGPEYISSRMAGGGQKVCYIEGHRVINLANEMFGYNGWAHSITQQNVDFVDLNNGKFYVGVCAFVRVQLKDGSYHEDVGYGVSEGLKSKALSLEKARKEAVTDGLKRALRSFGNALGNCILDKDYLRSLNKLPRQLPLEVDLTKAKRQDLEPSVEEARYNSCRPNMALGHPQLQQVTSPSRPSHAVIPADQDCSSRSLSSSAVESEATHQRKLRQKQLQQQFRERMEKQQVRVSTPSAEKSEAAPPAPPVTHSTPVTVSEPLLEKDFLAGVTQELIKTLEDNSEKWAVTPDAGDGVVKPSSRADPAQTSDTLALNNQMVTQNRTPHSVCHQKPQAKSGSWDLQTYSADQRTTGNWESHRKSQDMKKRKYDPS

Paired box protein Pax-8 = Paired box protein Pax-8 (Homo sapiens, UniProt Q06710); test: inhibitors of PAX8-driven TPO luciferase reporter, dose response, RMG-I cells, cherry-pick (AID 687027); format: functional, cell-based;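 also: luciferase reporter driven by Pax8 target thyroperoxidase promoter measured by SteadyGlo luminescence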
[11] = cytotoxicity in OVCAR8 ovarian cancer cells, dose response, PAX8 project, cell-based, plate reader, dry powder samples (AID 743197); format: functional; conditions: OVCAR-8
[12] = molecular target: T6, Hepatocyte nuclear factor 4-alpha (Homo sapiens, UniProt P41235); format: functional, cell-based;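 also: biochemical luminescence-based dose-response counterscreen measuring inhibition of HNF4 dimerization, run alongside a screen for blockers of ABHD5–perilipin-5 interaction; split luciferase complementation of HNF4 fusion proteins in cell lysate measuring dimerization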
T6 sequence (P41235 whole entry): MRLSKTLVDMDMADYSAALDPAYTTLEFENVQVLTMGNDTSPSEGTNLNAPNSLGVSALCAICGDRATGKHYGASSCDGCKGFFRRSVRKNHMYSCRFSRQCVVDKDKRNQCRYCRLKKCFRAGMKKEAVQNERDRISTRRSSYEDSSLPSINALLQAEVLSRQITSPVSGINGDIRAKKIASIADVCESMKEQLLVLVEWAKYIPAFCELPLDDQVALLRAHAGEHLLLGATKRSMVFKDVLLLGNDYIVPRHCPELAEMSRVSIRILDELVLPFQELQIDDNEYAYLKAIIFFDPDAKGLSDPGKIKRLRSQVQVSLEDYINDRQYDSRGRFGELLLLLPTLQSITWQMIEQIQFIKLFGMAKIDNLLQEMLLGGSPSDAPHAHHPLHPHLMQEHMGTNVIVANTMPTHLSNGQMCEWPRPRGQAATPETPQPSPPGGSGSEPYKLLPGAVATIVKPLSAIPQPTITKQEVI

Major prion protein = Major prion protein (Homo sapiens, UniProt P04156); format: functional, cell-based
cells [13] = test: cells
[14] = Luminescence Cell-Based Dose Retest to Confirm Inhibitors of Cancer Stem Cells. [Related pubchem assays (depositor defined):AID2717, AID2721]; format: functional; conditions: Homo sapiens
[15] = molecular target: T7, Rac GTPase-activating protein 1 (Homo sapiens, UniProt Q9H0H5); test: MgcRacGAP GTPase-activating activity inhibitors, confirmation, biochemical, ADP Hunter fluorescence, primary and confirmatory (AID 624330); format: functional
T7 sequence (Q9H0H5 whole entry): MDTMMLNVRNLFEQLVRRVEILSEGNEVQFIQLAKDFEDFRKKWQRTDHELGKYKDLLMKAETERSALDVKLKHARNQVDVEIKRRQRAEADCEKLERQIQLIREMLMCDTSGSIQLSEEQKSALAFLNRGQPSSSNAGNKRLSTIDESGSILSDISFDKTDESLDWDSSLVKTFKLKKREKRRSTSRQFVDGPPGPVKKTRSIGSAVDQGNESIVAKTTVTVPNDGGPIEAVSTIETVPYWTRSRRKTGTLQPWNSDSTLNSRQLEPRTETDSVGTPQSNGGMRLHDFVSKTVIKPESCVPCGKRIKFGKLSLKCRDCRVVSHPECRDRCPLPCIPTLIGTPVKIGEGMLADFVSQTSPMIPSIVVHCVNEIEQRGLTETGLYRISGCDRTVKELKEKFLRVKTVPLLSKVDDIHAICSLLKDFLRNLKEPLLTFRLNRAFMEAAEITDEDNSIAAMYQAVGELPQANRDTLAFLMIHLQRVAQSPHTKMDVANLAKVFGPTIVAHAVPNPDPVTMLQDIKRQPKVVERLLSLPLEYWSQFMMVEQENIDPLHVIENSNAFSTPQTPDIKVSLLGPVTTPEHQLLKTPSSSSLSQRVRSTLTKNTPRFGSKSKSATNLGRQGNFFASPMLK

CCc1ccc(NC(=O)CSc2ccc(-c3ccccn3)nn2)cc1
EC50 (cells [1]): 160 µM (active)
EC50 (cells [2]): > 350 µM (not active)
AC50 (INS1): 9.24 µM (active)
IC50 (H9c2): > 79 µM (inactive)
AC50 [3]: 87 µM (active)

Cc1cccc(OCC(=O)N/N=C\c2cn(C)c3ccccc23)c1
AC50 [4]: 14.6 µM (active)

Cc1cccn2c(=O)c3cc(C(=O)NCc4ccccc4)c(=N)n(CCCN4CCOCC4)c3nc12
AC50 [5]: 15.3 µM (active)

OC(c1cc(F)cc(Cl)c1)c1nc(-c2ccc3ccccc3c2)c[nH]1 (stereo unspecified)
IC50 [6]: 1.46 µM (active)
IC50 [7]: 83.3 µM (inactive)
IC50 [8]: 2.45 µM (active)

CCN1CCN(c2ccc(Nc3ccnc4ccccc34)cc2)CC1
AC50 [9]: 12.3 µM (active)
AC50 [5]: 12.2 µM (active)
AC50 [10]: 3.19 µM (active)

COC(=O)COc1ccc(Cl)cc1C1Nc2ccccc2C(=O)N1c1ccc(OC)cc1 (stereo unspecified)
AC50 [4]: > 100 µM (inactive)

C[C@H](CO)N1C[C@H](C)[C@H](CN(C)Cc2ccc(C(F)(F)F)cc2)Oc2ccc(NS(=O)(=O)c3ccc(F)cc3)cc2CC1=O
AC50 (Paired box protein Pax-8): 11.4 µM (active)
AC50 [11]: 52.5 µM (active)

CCCCCNC(=O)C(c1cc2ccccc2o1)n1c(=O)c(-c2ccco2)nc2ccccc21 (stereo unspecified)
IC50 [12]: 2 µM (active)

NC(=O)C(C(=O)/C=C/c1ccc(Cl)cc1)=C1SCCS1
IC50 [12]: 12.1 µM (inactive)

NC(=O)CSc1nc(-c2ccccc2)nc2ccccc12
IC50 (Major prion protein): 6.23 µM (active)
IC50 (cells [13]): > 138 µM (inactive)

COC(=O)CSc1ccnc2cc(Cl)ccc12
IC50 (Major prion protein): 5.16 µM (active)
IC50 (cells [13]): > 138 µM (inactive)

CCOC(=O)c1c(CN2CCCCC2)n(C)c2cc(Br)c(OC)cc12
AC50 [5]: 36.3 µM (active)

CCOc1ccc(NC(=O)CCSc2ccc3ccccc3n2)cc1
IC50 (Major prion protein): 9.01 µM (active)
IC50 (cells [13]): > 138 µM (inactive)

Cc1cccc(NC(=O)CCC(=O)N/N=C/c2ccc(O)cc2O)c1
AC50 [14]: 9.74 µM (active)
IC50 [15]: 62.8 µM (active)
AC50 [3]: 118 µM (active)

Cc1cccc(NS(=O)(=O)c2c(C)[nH]c(C)c2C(=O)N2CCCC2)c1
IC50 [6]: 35.4 µM (inactive)
IC50 [7]: 83.3 µM (inactive)
IC50 [8]: 11.8 µM (inactive)
